Legend:
[1] = result in words; cited from earlier work
[2] = test system: rat model of acute hypoxia; conditions: hypoxia with 10% oxygen, treatment after 10 minutes; only 2 of 6 control animals survived; cited from earlier work
[3] = Diffusivity of oxygen through aqueous solutions
Text: TSC increases survival in mammals following hypoxia, increases oxygen consumption following hypoxia or physiological stress, increases blood pressure following hypoxia, decreases blood acidosis (i.e., decreases blood base deficit, increases blood pH, and decreases plasma lactate level) following hypoxia, decreases organ damage (e.g. liver, kidney) following hypoxia. Thus, the compounds of the disclosure are useful for treating mammal (including human) diseases/conditions which are characterized by low oxygen (hypoxia) such as respiratory diseases, hemorrhagic shock and cardiovascular diseases, multiple organ failure (due to, for example, ARDS sepsis or hemorrhagic shock), chronic renal failure, atherosclerosis, emphysema, asthma, hypertension, cerebral edema, papillomas, spinal cord injuries, stroke, among others. The compounds of the disclosure are also useful for treating mammals at risk for the above-noted diseases/conditions. Other bipolar trans carotenoid salts have similar properties.

[4] = Aqueous solubility and solution stability of TSC / BTCS
Text: (§1) A dilute, eg .00001-.001M, solution of sodium carbonate can be added, dropwise, to deionized water until the pH is 8.0 (the pH of deionized water is usually 5-6). This only takes a few drops of the very dilute sodium carbonate per, say, 50 mls of deionized water.

physchem = conditions: water
Text: as §1

[5] = test system: hemorrhaged rats (55% blood volume); conditions: cited from earlier work
[6] = TSC by inhalation: drug in the blood stream after nebulizing into the trachea; type: in vivo; conditions: rats
Experimental: TSC has been given to rats via an inhalation route. Ten rats were given TSC directly into the lungs. This was done by inserting a tube into the trachea, and nebulizing 0.2 ml of TSC solution (TSC dissolved in dilute sodium carbonate solution) with about 3 to 6 mls of air. For all dosages studied (0.5-2 mg/kg), about 20% of the drug was present in the blood stream within one minute after it was given. For dosages of .8 -1.6 mg/kg the drug was present in the blood stream for a period of at least two hours.

[7] = Dissolution in normal saline and other salt solutions; type: physicochemical; conditions: no matter how much TSC is added (up to several milligrams per ml)
Experimental: Large volumes (as much as 3 times the estimated blood loss) of isotonic saline (also called normal saline) are infused as a treatment for hemorrhagic shock. The isotonic saline contains 9 g NaCl per liter of water so as not to disturb the ionic strength of the plasma once it is infused into the body. […] About 50% of the TSC dissolves in normal saline no matter how much TSC is added (up to several milligrams per ml), which means that undissolved particles of TSC are still present. […] The actual composition of the stock solution can be verified using UV-visible spectroscopy. This stock solution can be added to normal saline and the TSC remains dissolved.
This method can be used to dissolve a BTCS in other types of sodium chloride solutions, as well as in solutions of other salts such as KCl, Na2SO4, lactate, etc. Several, eg 1-3 mg/ml, can be put into solution in this manner.

Compound | solubility in water [1] | survival and hemodynamic stability [2] | increase of diffusivity of oxygen through aqueous solutions [3] | amount completely dissolved in sodium carbonate-deionized water solution ([4]; deionized water brought to pH 8.0 with dilute sodium carbonate) | stability of solutions in water ([4]; tap, distilled, deionized water) | solubility (physchem) [µg/mL] | solubility (physchem; pH 8) [µg/mL] | survival ([5]; hemorrhaged rats (55% blood volume), bolus after hemorrhage, saline after another 30 minutes, all controls died) | Whole-body oxygen consumption ([5]; hemorrhaged rats, after about 15 minutes) | drug present in the blood stream ([6]; inhalation (intratracheal nebulizing), all dosages 0.5-2 mg/kg, within one minute) | period the drug was present in the blood stream ([6]; inhalation, dosages of .8 -1.6 mg/kg) | amount of TSC that dissolves in normal saline [7]
CC(/C=C/C=C(\C)C(=O)O[C@@H]1O[C@H](CO[C@@H]2O[C@H](CO)[C@@H](O)[C@H](O)[C@H]2O)[C@@H](O)[C@H](O)[C@H]1O)=C\C=C\C=C(C)\C=C\C=C(/C)C(=O)O[C@@H]1O[C@H](CO[C@@H]2O[C@H](CO)[C@@H](O)[C@H](O)[C@H]2O)[C@@H](O)[C@H](O)[C@H]1O [crocin] | significant solubility |  |  |  |  |  |  |  |  |  |  | 
CC(/C=C/C=C(\C)C(=O)O)=C\C=C\C=C(C)\C=C\C=C(/C)C(=O)O [TSC, Trans sodium crocetinate] |  | all survived with good hemodynamic stability for over two hours | about 30% | around 10 mg/ml | only stable if the pH is adjusted so as to make the solution basic | ~10000 | > 10000 | All of the TSC-treated animals lived | 75 % of normal resting value | about 20% | at least two | About 50%
CC(/C=C/C=C(\C)C(=O)O)=C\C=C\C=C(C)\C=C\C=C(/C)C(=O)O [crocetin] | only sparingly soluble |  |  |  |  |  |  |  |  |  |  | 
